Results on 19 compounds are retold here after publication PMC3262147 (Chemmedchem, 2011).

Assay [1] deals with STS. The settings on record: cited from earlier work.
For assay [2], the target named is T1, STS (Homo sapiens, UniProt P08842).
T1 sequence (P08842 22-583): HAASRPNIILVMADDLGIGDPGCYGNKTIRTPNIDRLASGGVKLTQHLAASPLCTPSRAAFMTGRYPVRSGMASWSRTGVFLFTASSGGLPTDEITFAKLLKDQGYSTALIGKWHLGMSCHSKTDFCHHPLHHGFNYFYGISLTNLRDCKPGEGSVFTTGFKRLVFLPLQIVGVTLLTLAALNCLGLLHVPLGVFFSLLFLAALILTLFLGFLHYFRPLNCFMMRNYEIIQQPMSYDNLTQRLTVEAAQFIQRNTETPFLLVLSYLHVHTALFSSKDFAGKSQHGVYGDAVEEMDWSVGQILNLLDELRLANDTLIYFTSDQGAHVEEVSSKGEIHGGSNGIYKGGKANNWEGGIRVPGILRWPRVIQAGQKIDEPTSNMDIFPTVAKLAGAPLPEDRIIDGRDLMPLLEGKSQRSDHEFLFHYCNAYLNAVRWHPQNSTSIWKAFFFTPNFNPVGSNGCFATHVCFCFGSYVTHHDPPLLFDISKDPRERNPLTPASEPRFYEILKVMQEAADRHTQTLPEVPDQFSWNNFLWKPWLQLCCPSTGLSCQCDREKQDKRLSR
The assay is described as follows: Inhibition of STS activity in intact monolayers of JEG-3 cells. The assay is classed as cell-based. The note with it: for inhibition at 10 µM: JEG-3, JEG-3 cells.

The next assay deals with liver STS, skin STS. The settings on record: 1 and 10 mg kg^−1, cited from earlier work.
Another assay relates to rat liver STS. The settings on record: 24 h after administration, cited from earlier work.
Where [3] appears, read: read-out: PM IC50, placental microsomes.
Setting [4] is: preparation of placental microsomes.

Like-named read-outs stand apart in the source and are kept apart here.

For `NS(=O)(=O)Oc1ccc2c3c(c(=O)oc2c1)CCCCCCCC3` [Compound 7, 6-Oxo-7,8,9,10,11,12,13,14-octahydro-6H-cyclodeca[c]chromen-3-yl sulfamate], the IC50 with STS [1] (setting [3]) was 1 nM; against STS [2] it was 0.025 nM.
`NS(=O)(=O)Nc1ccc2c3c(c(=O)[nH]c2c1)CCCCC3` [Compound 24, 6-Oxo-6,7,8,9,10,11-hexahydro-5H-cyclohepta[c]quinolin-3-ylsulfamide]: the IC50 on STS [2] was > 1000 nM.
With `COc1cc2c(cc1OS(N)(=O)=O)CC[C@@H]1[C@@H]2CC[C@]2(C)C(=O)CC[C@@H]12` [2-methoxyestrone 3-O-sulfamate, reference compound], the IC50 in the assay on STS [1] (setting [4]) is 30 nM.
In turn, `COc1nc2cc(OS(N)(=O)=O)ccc2c2c1CCCCC2` [Compound 19, 6-Methoxy-8,9,10,11-tetrahydro-7H-cyclohepta[c]quinolin-3-yl sulfamate] registered an inhibition at 10 µM at STS [2] (determined at 10 μM) of 68%.
For the compound `CN(C)S(=O)(=O)Oc1ccc2c3c(c(=O)oc2c1)CCCCC3` [Compound 12, 6-Oxo-6,7,8,9,10,11-hexahydrocyclohepta[c]chromen-3-yl dimethylsulfamate], the “Inhibition of skin and liver STS” value with liver STS, skin STS (applied topically) is given as “inhibits skin as well as liver STS effectively”. Further, the “Inhibition of liver STS activity” value in the assay on liver STS, skin STS (nude mice, oral) was “inhibits liver STS activity potently”. Also, the half-inhibitory concentration (IC50) at STS [2] was > 10000 nM. In addition, the “JEG-3 IC50” value at STS [2] (JEG-3 cells, Table 1) was “inactive”.
For the compound `C[C@]12CC[C@@H]3c4ccc(OS(N)(=O)=O)cc4CC[C@H]3[C@@H]1CCC2=O` [EMATE, oestrone 3-O-sulfamate, reference compound], the IC50 in the assay on STS [1] (setting [4]) is 4 nM.
With `NS(=O)(=O)Oc1ccc2c3c(c(OCCCc4ccccc4)nc2c1)CCCCC3` [Compound 23, 6-(3-Phenylpropoxy)-8,9,10,11-tetrahydro-7H-cyclohepta[c]quinolin-3-yl sulfamate], on STS [2] (determined at 10 μM), the inhibition at 10 µM is < 10%.
As to `CCCCCOc1nc2cc(OS(N)(=O)=O)ccc2c2c1CCCCC2` [Compound 21, 6-(Pentyloxy)-8,9,10,11-tetrahydro-7H-cyclohepta[c]quinolin-3-yl sulfamate], the inhibition at 10 µM against STS [2] (determined at 10 μM) was < 10%.
`NS(=O)(=O)Oc1ccc2c3c(c(=O)oc2c1)CCCCCCCCCCCCC3` [Compound 11, 6-Oxo-6,7,8,9,10,11,12,13,14,15,16,17,18,19-tetradecahydrocyclopentadeca[c]chromen-3-yl sulfamate]: the “Inhibition of rat liver STS activity” value in the assay with rat liver STS (0.1 mg kg^−1) is 23%; in the assay with rat liver STS (1 mg kg^−1), 94%. Moreover, the IC50 in the assay on STS [1] (setting [3]) is 370 nM; at STS [2] it was 1600 nM.
In the case of `Cn1c(=O)c2c(c3ccc(OS(N)(=O)=O)cc31)CCCCC2` [Compound 18, 5-Methyl-6-oxo-6,7,8,9,10,11-hexahydro-5H-cyclohepta[c]quinolin-3-yl sulfamate], on STS [2], the IC50 came to 2400 nM.
At STS [2], `NS(=O)(=O)Oc1ccc2c3c(c(=O)[nH]c2c1)CCCCC3` [Compound 16, 6-Oxo-6,7,8,9,10,11-hexahydro-5H-cyclohepta[c]quinolin-3-yl sulfamate] came in with an IC50 of 240 ± 40 nM. In addition, 10 µM produced 98% inhibition against STS [2] (determined at 10 μM). The “Fold less potent than 1” value on STS [2] (JEG-3 IC50 versus 1) came to 160 fold. On STS [2] (JEG-3 cells, determined at 10 μM, 10 µM), this compound showed an Inhibition of 96%.
On to `COc1cc2c3c(c(=O)oc2cc1OS(N)(=O)=O)CCCCC3` [Compound 13, 2-Methoxy-6-oxo-6,7,8,9,10,11-hexahydrocyclohepta[c]chromen-3-yl sulfamate], for which the IC50 against STS [2] is 78 ± 13 nM.
The compound `NS(=O)(=O)Oc1ccc2c3c(c(=O)n(CCCc4ccccc4)c2c1)CCCCC3` [Compound 22, 6-Oxo-5-(3-phenylpropyl)-6,7,8,9,10,11-hexahydro-5H-cyclohepta[c]quinolin-3-yl sulfamate] yielded an inhibition at 10 µM against STS [2] (determined at 10 μM) of 20%.
`NS(=O)(=O)Oc1ccc2c3c(c(=O)oc2c1)CCCCCCCCCCC3` [Compound 10, 6-Oxo-6,7,8,9,10,11,12,13,14,15,16,17-dodecahydrocyclotrideca[c]chromen-3-yl sulfamate]: the figures for the IC50 with STS [1] (setting [3]) and on STS [2] were 75 nM and 220 nM, respectively.
`NS(=O)(=O)Oc1ccc2oc(=O)c3c(c2c1)CCCCC3` [Compound 14, 6-oxo-6,7,8,9,10,11-hexahydrocyclohepta[c]chromen-2-yl sulfamate] returned an IC50 against STS [2] of 283 ± 66 nM.
With `CCCCCn1c(=O)c2c(c3ccc(OS(N)(=O)=O)cc31)CCCCC2` [Compound 20, 6-Oxo-5-pentyl-6,7,8,9,10,11-hexahydro-5H-cyclohepta[c]quinolin-3-yl sulfamate], the inhibition at 10 µM at STS [2] (determined at 10 μM) was < 10%.
For the compound `NS(=O)(=O)Oc1ccc2c3c(c(=O)oc2c1)CCCCCCC3` [Compound 6, 6-Oxo-6,7,8,9,10,11,12,13-octahydrocyclonona[c]chromen-3-yl sulfamate], the concentration for half-maximal inhibition (IC50) in the assay on STS [1] (setting [3]) was 2.4 nM; against STS [2], 0.022 nM.
Turning to `NS(=O)(=O)Oc1ccc2c3c(c(=O)oc2c1)CCCCC3` [Compound 1, Irosustat], the 50% inhibitory concentration (IC50) in the assay on STS [1] (setting [3]) was 8 nM.
As for `NS(=O)(=O)Oc1ccc2c3c(c(=O)oc2c1)CCCCCCCCCC3` [Compound 9, 6-Oxo-7,8,9,10,11,12,13,14,15,16-decahydro-6H-cyclododeca[c]chromen-3-yl sulfamate], the IC50 is 60 nM in the assay with STS [1] (setting [3]) and 100 nM against STS [2].
